The values that follow come from ChEMBL document CHEMBL1146865, “Synthesis and antifungal activity of a novel series of alkyldimethylamine cyanoboranes and their derivatives” (J Med Chem, 2006).

The structures appear in SMILES notation. In brackets after ≈: the same amount, converted by molar mass. Bounds are passed on as bounds.

The test system of data set [1] is Candida albicans. Nature of the data set: microbe, parasite or virus in culture. It is filed as functional.
Description: Antifungal activity against Candida albicans 607
In data set [2] the test system is Candida albicans. Nature of the data set: microbe, parasite or virus in culture. Type of data set: functional. The settings on record: CBS 562.
Description: Antifungal activity against Candida albicans CBS 562
For data set [3], the system named is Candida albicans. The data set is described as follows: microbe, parasite or virus in culture. It is filed as functional. This is another data set of the same source.
Description: Antifungal activity against Candida albicans 615
For another data set, the system named is Aspergillus fumigatus. The data set is described as follows: microbe, parasite or virus in culture. Particulars: ATCC 64026. It is filed as functional.
In data set [4] the test system is Nakaseomyces glabratus. The data set is described as follows: microbe, parasite or virus in culture. It is filed as functional.
Description: Antifungal activity against Candida glabrata 566
Data set [5] has as its system Pichia kudriavzevii. Nature of the data set: microbe, parasite or virus in culture. Type of data set: functional.
Description: Antifungal activity against Candida krusei 603
In data set [6] the test system is Pichia kudriavzevii. Nature of the data set: microbe, parasite or virus in culture. Type of data set: functional. The source holds these as a separate data set.
Description: Antifungal activity against Candida krusei 638
For data set [7], the system named is Nakaseomyces glabratus. The data set is described as follows: microbe, parasite or virus in culture. Type of data set: functional. The source holds these as a separate data set.
Description: Antifungal activity against Candida glabrata 646
Data set [8] concerns Nakaseomyces glabratus. The data set is described as follows: microbe, parasite or virus in culture. Type of data set: functional. This is another data set of the same source.
Description: Antifungal activity against Candida glabrata 648
The test system of data set [9] is Nakaseomyces glabratus. Nature of the data set: microbe, parasite or virus in culture. Type of data set: functional. This is another data set of the same source.
Description: Antifungal activity against Candida glabrata 572
Data set [10] has as its system Nakaseomyces glabratus. The data set is described as follows: microbe, parasite or virus in culture. Type of data set: functional. The source holds these as a separate data set.
Description: Antifungal activity against Candida glabrata 578
Data set [11] is described as follows: Toxicity in ICR mouse at 1 to 2 mg/ml, iv after 8 days. Particulars: in vivo.

Description for Aspergillus fumigatus: Antifungal activity against Aspergillus fumigatus ATCC 64026

For `CN(C)CCCCCCCCCCN(C)C.N#CBBr.N#CBBr`, the MIC in the data set on Candida albicans [1], in the data set with Candida albicans [2] and against Candida albicans [3] was 140 µM throughout.

Turning to `BC#N.CN(C)C`, the MIC against Candida albicans [1] is greater than 5100 µM; against Aspergillus fumigatus, greater than 5100 µM; against Candida albicans [2] it was 5100 µM; against Candida albicans [3], greater than 5100 µM.

Turning to `CCCCCCCCCCCN(C)C.N#CB(Br)Br`, the MIC against Nakaseomyces glabratus [4] stood at 20.2 µM; in the data set on Candida albicans [1], 39 µM; with Pichia kudriavzevii [5] it was 10.1 µM; with Pichia kudriavzevii [6], 10.1 µM; against Aspergillus fumigatus, 79 µM; with Nakaseomyces glabratus [7], 20.2 µM. In addition, the MIC with Nakaseomyces glabratus [8] was determined as 20.2 µM; against Nakaseomyces glabratus [9], 40.4 µM; against Candida albicans [2], 39 µM; against Nakaseomyces glabratus [10], 40.4 µM; in the data set on Candida albicans [3] it was 39 µM. This compound yielded an MTD at 192 h in [11] of 73.1 µmol/kg.

In the case of `CN(C)CCCCCCCCCCN(C)C.N#CB(Br)Br.N#CB(Br)Br`, the MIC against Candida albicans [1], against Candida albicans [2] and against Candida albicans [3] was 104 µM in each case.

Regarding `BC(=O)O.BC(=O)O.CN(C)CCCCCCCCCCN(C)C`, the MIC was determined as 188 µM in the data set on Candida albicans [1], 188 µM against Candida albicans [2] and 907 µM in the data set with Candida albicans [3].

Regarding `CCCCCCCCCCCN(C)C.N#CBF`, the MIC was found to be 64 µM against Candida albicans [1], 129 µM against Aspergillus fumigatus, 64 µM in the data set with Candida albicans [2] and 64 µM against Candida albicans [3].

Regarding `CCCCCCCCCCCN(C)C.N#CBBr`, the MIC against Candida albicans [1] is 49 µM; against Aspergillus fumigatus, 131 µM; against Candida albicans [2], 49 µM; against Candida albicans [3], 49 µM.

Consider `C[C@@H]1[C@H](O)[C@@H](C)/C=C/C=C/C=C/C=C/C=C/C=C/C=C/[C@H](O[C@@H]2O[C@H](C)[C@@H](O)[C@H](N)[C@@H]2O)C[C@@H]2O[C@](O)(C[C@@H](O)C[C@@H](O)[C@H](O)CC[C@@H](O)C[C@@H](O)CC(=O)O[C@H]1C)C[C@H](O)[C@H]2C(=O)O` [AMPHOTERICIN B], for which the MIC against Nakaseomyces glabratus [4] came out at 0.13 µM (≈ 0.12 µg/mL); against Candida albicans [1] it was 0.27 µM (≈ 0.25 µg/mL); in the data set on Pichia kudriavzevii [5] it was 4.32 µM (≈ 3.99 µg/mL); against Pichia kudriavzevii [6] it was 4.32 µM (≈ 3.99 µg/mL); in the data set on Aspergillus fumigatus it was 0.5 µM (≈ 0.462 µg/mL); against Nakaseomyces glabratus [7] it was 0.41 µM (≈ 0.379 µg/mL). In addition, the MIC amounted to 0.82 µM (≈ 0.758 µg/mL) in the data set on Nakaseomyces glabratus [8]; 1.07 µM (≈ 0.989 µg/mL) with Nakaseomyces glabratus [9]; 0.54 µM (≈ 0.499 µg/mL) in the data set on Candida albicans [2]; 2.14 µM (≈ 1.98 µg/mL) against Nakaseomyces glabratus [10]; 0.27 µM (≈ 0.25 µg/mL) against Candida albicans [3]. Also, the MTD at 192 h in data set [11] was found to be 2.6 µmol/kg.

Turning to `CN(C)C.N#CB(Br)Br` [DIBROMOBORANECARBONITRILE; TRIMETHYLAMINE], the values for the MIC against Candida albicans [1], with Candida albicans [2] and in the data set with Candida albicans [3] were greater than 1970 µM, 1970 µM and greater than 1970 µM, respectively.

In the case of `BC#N.CCCCCCCCCCCCN(C)C` [DODECYLDIMETHYLAMINE CYANOBORANE], the MIC against Candida albicans [1], against Candida albicans [2] and against Candida albicans [3] was 61 µM each time.

Turning to `OC(Cn1cncn1)(Cn1cncn1)c1ccc(F)cc1F` [FLUCONAZOLE], the MIC in the data set on Candida albicans [1] was 1.6 µM (≈ 0.49 µg/mL); in the data set with Pichia kudriavzevii [5], 104 µM (≈ 32 µg/mL); in the data set with Pichia kudriavzevii [6], 104 µM (≈ 32 µg/mL); in the data set with Aspergillus fumigatus, greater than 208 µM; with Nakaseomyces glabratus [7], 52.2 µM (≈ 16 µg/mL); with Nakaseomyces glabratus [9] it was greater than 836 µM. Further, the MIC in the data set with Candida albicans [2] is 1.6 µM (≈ 0.49 µg/mL); with Nakaseomyces glabratus [10], greater than 836 µM; against Candida albicans [3], 1.6 µM (≈ 0.49 µg/mL).
